{
  "source": "patent US20080210128A1",
  "about": "“Optical Layer including mu-oxo-bridged boron-subphthalocyanine dimer” (ORIENT CHEMICAL INDUSTRIES, LTD., priority 2007, published 2008)",
  "key": {"[1]": {"experiment": "Absorption spectrum in chloroform (spectral photometer UV-1700)", "assay_type": "physicochemical"}, "[2]": {"experiment": "Solubility in methyl ethyl ketone", "text": "Incidentally, a spectral photometer of UV-1700 available from Shimadzu Corporation was used."}, "[3]": {"experiment": "Dissolution of colorant on preparing the coating agent", "assay_type": "physicochemical", "details": "0.5 parts by weight colorant in methyl ethyl ketone / cyclohexanone with polymethacrylate", "experimental": "0.1 parts by weight of the Compound obtained in the Manufacturing Example 1 and 15 parts by weigh of polymethacrylate were mixed and dissolved into 50 parts by weight of methyl ethyl ketone and 35 parts by weight of cyclohexanone by stirring, and liquid coating agent was prepared.\nIn Comparative Example 2, a thin layer was prepared by the same procedures as Example 1 except for using a coating agent prepared by using Intermediate Compound A-1 obtained in Manufacturing Example 1 instead of using Compound 1 used in Example 1. Incidentally, the additive amount of colorant to prepare a coating agent was changed to 0.5 parts by weight. […] Therefore, a coating agent was obtained as dispersion."}},
  "note": "Where two headings read alike, the source gives them in different places.",
  "data": [
    {"compound": "c1ccc2c(c1)C1=Nc3c4ccccc4c4n3[B-]3(O[B-]56n7c8c9ccccc9c7N=c7c9ccccc9c(n75)=NC5=[N+]6C(=N8)c6ccccc65)n5c(c6ccccc6c5=N4)=NC2=[N+]13", "note": "(stereo not drawn) [Compound 1, (SubPcB)2O]", "values": [
      {"measurement": "maximum absorption wavelength", "setting": "[1]", "result": 532, "unit": "nm"},
      {"measurement": "molar absorption coefficient", "setting": "[1]", "result": 106000, "unit": "dm^3mol^−1cm^−1"},
      {"measurement": "Solubility", "setting": "[2]; solvent: methyl ethyl ketone", "result": 1.14, "unit": "mg/mL"}
    ]},
    {"compound": "ClB1n2c3c4ccccc4c2N=c2c4ccccc4c(n21)=NC1=NC(=N3)c2ccccc21", "note": "[Intermediate Compound A-1, SubPcBCl, reference compound]", "values": [
      {"measurement": "maximum absorption wavelength", "setting": "[1]", "result": 565, "unit": "nm"},
      {"measurement": "molar absorption coefficient", "setting": "[1]", "result": 51000, "unit": "dm^3mol^−1cm^−1"},
      {"measurement": "Solubility", "setting": "[2]", "result": 0.025, "unit": "mg/mL"},
      {"measurement": "dissolution in coating agent", "setting": "[3]", "result": "did not dissolve completely"}
    ]},
    {"compound": "(t-Bu3SubPcB)2O [Compound 2]", "values": [
      {"measurement": "maximum absorption wavelength", "setting": "[1]", "result": 543, "unit": "nm"},
      {"measurement": "molar absorption coefficient", "setting": "[1]", "result": 61000, "unit": "dm^3mol^−1cm^−1"},
      {"measurement": "Solubility", "setting": "[2]; solvent: methyl ethyl ketone", "result": 58.5, "unit": "mg/mL"}
    ]},
    {"compound": "SubPcBOH [Intermediate Compound B-1, reference compound]", "values": [
      {"measurement": "maximum absorption wavelength", "setting": "[1]", "result": 562, "unit": "nm"},
      {"measurement": "molar absorption coefficient", "setting": "[1]", "result": 45000, "unit": "dm^3mol^−1cm^−1"}
    ]},
    {"compound": "{(C8H17O)3SubPcB}2O [Compound 3]", "values": [
      {"measurement": "maximum absorption wavelength", "setting": "[1]", "result": 543, "unit": "nm"},
      {"measurement": "molar absorption coefficient", "setting": "[1]", "result": 87000, "unit": "dm^3mol^−1cm^−1"},
      {"measurement": "Solubility", "setting": "[2]", "result": 83.2, "unit": "mg/mL"}
    ]}
  ]
}
